Source: patent publication US20220370486A1, “COMBINATION TREATMENT OF SYSTEMIC FUNGAL INFECTIONS” (The Board of Trustees of the University of Illinois, priority 2019, published 2022)
In brackets after ≈: the same amount, converted by molar mass. Read-outs that look alike come from different tables or passages of the source. Values belong to the compound of their own block, whether it stands above or below them.

Assays:
[1] = test system: C. tropicalis 1046709; experiment: Checkerboard broth microdilution (CLSI); type: cell-based; conditions: isolate 1046709
Procedure: (§1) Isolates were tested against varying concentrations of amphotericin B and C2′epiAmB (range, 0.06 to 4 mg/L) and combined with fluconazole (range, 0.12 to 128 mg/L) or ketoconazole (range 0.008 to 8 mg/L) or voriconazole (range, 0.004 to 4 mg/L) using a checkerboard grid design following the Clinical and Laboratory Standards Institute (CLSI) broth microdilution method (M23Ed5).

[2] = test system: F. oxysporum SC 1087597; experiment: Checkerboard broth microdilution (CLSI); type: cell-based; conditions: isolate 1087597
Procedure: as §1

[3] = test system: C. albicans 967374; experiment: Checkerboard broth microdilution (CLSI); type: cell-based; conditions: isolate 967374; for MIC: single agent
Procedure: as §1

[4] = test system: C. krusei ATCC 6258; experiment: Checkerboard broth microdilution (CLSI); type: cell-based; conditions: isolate ATCC 6258
Procedure: as §1

[5] = test system: A. fumigatus ATCC MYA-3626; experiment: Checkerboard broth microdilution (CLSI); type: cell-based; conditions: isolate ATCC MYA-3626
Procedure: as §1

[6] = test system: C. parapsilosis 1048737; experiment: Checkerboard broth microdilution (CLSI); type: cell-based; conditions: isolate 1048737
Procedure: as §1

[7] = test system: A. flavus SC 1085986; experiment: Checkerboard broth microdilution (CLSI); type: cell-based; conditions: isolate 1085986
Procedure: as §1

[8] = test system: C. glabrata 1046695; experiment: Checkerboard broth microdilution (CLSI); type: cell-based; conditions: isolate 1046695
Procedure: as §1

[9] = test system: F. solani SC 1047542; experiment: Checkerboard broth microdilution (CLSI); type: cell-based; conditions: isolate 1047542
Procedure: as §1

[10] = test system: C. parapsilosis ATCC 22019; experiment: Checkerboard broth microdilution (CLSI); type: cell-based; conditions: isolate ATCC 22019
Procedure: as §1

[11] = test system: C. krusei 975691; experiment: Checkerboard broth microdilution (CLSI); type: cell-based; conditions: isolate 975691; for MIC: single agent
Procedure: as §1

[12] = test system: A. flavus ATCC 204304; experiment: Checkerboard broth microdilution (CLSI); type: cell-based; conditions: isolate ATCC 204304
Procedure: as §1

[13] = test system: C. auris 1081160; experiment: Checkerboard broth microdilution (CLSI); type: cell-based; conditions: isolate 1081160
Procedure: as §1

[14] = test system: A. fumigatus 1077391; experiment: Checkerboard broth microdilution (CLSI); type: cell-based; conditions: isolate 1077391
Procedure: as §1

[15] = UV-Vis and PCA based sterol sponge binding assay; conditions: apparent KD, sterol sponge aggregates in vitro
Excerpt: However, an alternative method was developed for reproducible formation of homogenous AmB and C2′epiAmB sterol sponge aggregates in vitro. Using these preparations, a quantitative UV-Vis and Principle Component (PCA) based assay for determining the apparent Kis for the binding of AmB and C2′epiAmB to ergosterol and cholesterol (FIGS. 2A-2D) was developed.

[16] = test system: Candida albicans SN250; experiment: MIC against Candida albicans SN250; type: cell-based
[17] = test system: yeast cells; experiment: Antifungal activity after ergosterol pre-complexation of the sponge; type: cell-based; conditions: sponge pre-complexed with ergosterol
Excerpt: Anderson, T. M. et al., Nat Chem Biol 2014, 10 (5), 400-6. […] Davis, S. A., et al., Nat Chem Biol 2015, 11 (7), 481-7. To test whether C2′epiAmB primarily kills cells via the same sterol sponge mechanism, the C2′epiAmB sponge was similarly pre-complexed with ergosterol. […] Thus, C2′epiAmB similarly kills yeast primarily via sterol binding, and, by extension, the new compounds targeted in this application are expected to have a similar barrier to fungal resistance that has been observed for the past 50+years with AmB.

[18] = test system: primary hREC; experiment: Toxicity to primary hREC; type: cell-based, human
Excerpt: (§2) This key discovery opened a path to the rational development of a non-toxic AmB variant. To probe its predicted role in sterol binding, the hydroxyl group was synthetically deleted at the C2′ position on the mycosamine appendage.
(§3) In each case, C2′epiAmB is non-toxic to human red blood cells, primary hREC, mice, and rats up to the highest dose tested.

[19] = Isothermal titration calorimetry (ITC) sterol binding
Excerpt: as §2
A practical 11-step synthesis of C2′epiAmB using a frontier site-selective acylation method was developed. Wilcock, B. C. et al., Nat Chem 2012, 4 (12), 996-1003; Uno, B. E. A synthesis enabled understanding of Amphotericin B leading to derivatives with improved therapeutic indices. University of Illinois at Urbana-Champaign, 2014. The sterol binding and cell killing activities was then determined.

[20] = test system: human red blood cells; experiment: Toxicity to human red blood cells; type: cell-based
Excerpt: as §2, §3

[21] = test system: yeast; experiment: Activity against yeast; type: cell-based
Excerpt: as §2

MIC ([1]; Candida tropicalis, single agent): 0.5 µg/mL
MIC when added 1 log2 unit lower of azoles' MIC ([1]; with fluconazole): 0.25 mg/L
MIC when added 1 log2 unit lower of azoles' MIC ([1]; with ketoconazole): 0.5 mg/L
MIC when added 1 log2 unit lower of azoles' MIC ([1]; with voriconazole): 0.5 mg/L
MIC ([2]; Fusarium oxysporum, single agent): 2 µg/mL
MIC when added 1 log2 unit lower of azoles' MIC ([2]; with ketoconazole): 0.06 mg/L
MIC when added 1 log2 unit lower of azoles' MIC ([2]; with voriconazole): 2 mg/L
MIC ([3]; Candida albicans, read-out: MIC): 0.5 µg/mL
MIC [3]: 1 µg/mL
MIC when added 1 log2 unit lower of azoles' MIC ([3]; with fluconazole): 0.5 mg/L
MIC when added 1 log2 unit lower of azoles' MIC ([3]; with ketoconazole): 0.5 mg/L
MIC when added 1 log2 unit lower of azoles' MIC ([3]; with voriconazole): 0.5 mg/L
MIC ([4]; Pichia kudriavzevii, ATCC6258, single agent, read-out: MIC): 0.5 µg/mL
MIC ([4]; single agent): 1 µg/mL
MIC when added 1 log2 unit lower of azoles' MIC ([4]; with fluconazole): 0.5 mg/L
MIC when added 1 log2 unit lower of azoles' MIC ([4]; with ketoconazole): 0.5 mg/L
MIC when added 1 log2 unit lower of azoles' MIC ([4]; with voriconazole): 0.5 mg/L
MIC ([5]; Aspergillus fumigatus, single agent, read-out: MIC): 1 µg/mL
MIC when added 1 log2 unit lower of azoles' MIC ([5]; with ketoconazole): 2 mg/L
MIC when added 1 log2 unit lower of azoles' MIC ([5]; with voriconazole): 1 mg/L
MIC ([6]; Lodderomyces parapsilosis, single agent, read-out: MIC): 0.5 µg/mL
MIC when added 1 log2 unit lower of azoles' MIC ([6]; with fluconazole): 0.25 mg/L
MIC when added 1 log2 unit lower of azoles' MIC ([6]; with ketoconazole): 0.25 mg/L
MIC when added 1 log2 unit lower of azoles' MIC ([6]; with voriconazole): 0.25 mg/L
MIC ([7]; Aspergillus flavus, single agent): 2 µg/mL
MIC when added 1 log2 unit lower of azoles' MIC ([7]; with ketoconazole): 1 mg/L
MIC when added 1 log2 unit lower of azoles' MIC ([7]; with voriconazole): 2 mg/L
MIC ([8]; Nakaseomyces glabratus, single agent, read-out: MIC): 0.5 µg/mL
MIC when added 1 log2 unit lower of azoles' MIC ([8]; with fluconazole): 0.5 mg/L
MIC when added 1 log2 unit lower of azoles' MIC ([8]; with ketoconazole): 0.06 mg/L
MIC when added 1 log2 unit lower of azoles' MIC ([8]; with voriconazole): 0.5 mg/L
MIC ([9]; Fusarium solani, single agent): 2 µg/mL
MIC when added 1 log2 unit lower of azoles' MIC ([9]; with ketoconazole): 0.06 mg/L
MIC when added 1 log2 unit lower of azoles' MIC ([9]; with voriconazole): 2 mg/L
MIC when added 1 log2 unit lower of azoles' MIC ([10]; with fluconazole): 0.25 mg/L
MIC when added 1 log2 unit lower of azoles' MIC ([10]; with ketoconazole): 0.25 mg/L
MIC when added 1 log2 unit lower of azoles' MIC ([10]; with voriconazole): 0.5 mg/L
MIC ([11]; Pichia kudriavzevii, read-out: MIC): 1 µg/mL
MIC [11]: 0.5 µg/mL
MIC when added 1 log2 unit lower of azoles' MIC ([11]; with fluconazole): 0.5 mg/L
MIC when added 1 log2 unit lower of azoles' MIC ([11]; with ketoconazole): 0.5 mg/L
MIC when added 1 log2 unit lower of azoles' MIC ([11]; with voriconazole): 0.5 mg/L
MIC ([12]; Aspergillus flavus, ATCC204304, single agent): 1 µg/mL
MIC when added 1 log2 unit lower of azoles' MIC ([12]; with ketoconazole): 1 mg/L
MIC when added 1 log2 unit lower of azoles' MIC ([12]; with voriconazole): 0.5 mg/L
MIC ([13]; Candidozyma auris, single agent, read-out: MIC): 1 µg/mL
MIC when added 1 log2 unit lower of azoles' MIC ([13]; with fluconazole): 0.06 mg/L
MIC when added 1 log2 unit lower of azoles' MIC ([13]; with ketoconazole): 1 mg/L
MIC when added 1 log2 unit lower of azoles' MIC ([13]; with voriconazole): 1 mg/L
MIC ([14]; Aspergillus fumigatus, single agent): 1 µg/mL
MIC when added 1 log2 unit lower of azoles' MIC ([14]; with ketoconazole): 0.06 mg/L
MIC when added 1 log2 unit lower of azoles' MIC ([14]; with voriconazole): 1 mg/L
Kd ([15]; read-out: KD,chol): 840 nM
Kd ([15]; read-out: KD,erg): 120 nM
MIC [16]: 0.15 µM (≈ 0.139 µg/mL)
Structure (SMILES): C[C@@H]1[C@H](O)[C@@H](C)/C=C/C=C/C=C/C=C/C=C/C=C/C=C/[C@H](O[C@@H]2O[C@H](C)[C@@H](O)[C@H](N)[C@@H]2O)C[C@@H]2O[C@](O)(C[C@@H](O)C[C@@H](O)[C@H](O)CC[C@@H](O)C[C@@H](O)CC(=O)O[C@H]1C)C[C@H](O)[C@H]2C(=O)O [AmB, Amphotericin B]
change of potency upon ergosterol pre-complexation [17]: same reduction in potency

Structure (SMILES): CC1C=CC=CC=CC=CC=CC=CC=CC(OC2CC(N)C(O)C(C)O2)CC2OC(O)(CC(O)CC(O)C(O)CCC(O)CC(O)CC(=O)OC(C)C(C)C1O)CC(O)C2C(=O)O (stereo not shown) [C2′deOAmB]
toxicity to primary hREC [18]: nontoxic
binding of ergosterol by ITC [19]: bind ergosterol
binding of cholesterol by ITC ([19]; within the detection limits of ITC): not cholesterol
toxicity to human red blood cells [20]: nontoxic
activity against yeast [21]: retained good activity
